Read-outs that look alike come from different tables or passages of the source.
Biological target: T1, human DGAT2 (hDGAT2) (Homo sapiens, UniProt Q96PD7)
T1 construct: made in house; host or cells: Sf-9 insect cells (baculovirus), membrane fraction
T1 sequence (Q96PD7 1-388): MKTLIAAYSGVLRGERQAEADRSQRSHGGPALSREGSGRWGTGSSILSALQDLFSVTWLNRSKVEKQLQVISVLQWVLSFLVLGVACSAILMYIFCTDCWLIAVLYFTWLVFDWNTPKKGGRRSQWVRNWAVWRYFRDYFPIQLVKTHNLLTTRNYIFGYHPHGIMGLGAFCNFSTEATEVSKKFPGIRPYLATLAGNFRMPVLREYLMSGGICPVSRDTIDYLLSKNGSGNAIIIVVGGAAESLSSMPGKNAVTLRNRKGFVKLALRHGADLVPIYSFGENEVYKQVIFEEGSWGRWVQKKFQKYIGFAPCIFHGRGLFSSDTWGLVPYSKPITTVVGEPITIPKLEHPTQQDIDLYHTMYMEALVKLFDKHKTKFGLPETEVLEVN
Experiment: DGAT2 Enzymatic Activity Assay
Assay type: biochemical
Details: membrane prep of Sf-9 cells expressing hDGAT2, 25 μM diolein, 5 μM 13C oleoyl-CoA, 13C18-triolein by LC/MS/MS
Method in brief: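 Membranes from Sf-9 cells expressing untagged human DGAT2 (8 ng/μL) incubated at rt in 100 mM Tris·Cl pH 7.0, 20 mM MgCl2, 5% ethanol with 25 μM diolein and 5 μM 13C oleoyl-CoA. 13C18-triolein product quantified by LC/MS/MS against 13C21-triolein internal standard; IC50 by 4-parameter fit.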

IC50 (read-out: Human DGAT2 IC50)	IC50 (read-out: DGAT2 IC50)	SMILES
2.1 nM		CC(C)n1c(=O)n(-c2cc(OC(F)F)ccc2F)c2ccc(C(=O)NC3(C)CCS(=O)(=O)CC3)cc21 [Example 79, 1-(5-(Difluoromethoxy)-2-fluorophenyl)-3-isopropyl-N-(4-methyl-1,1-dioxidotetrahydro-2H-thiopyran-4-yl)-2-oxo-2,3-dihydro-1H-benzo[d]imidazole-5-carboxamide]
7.7 nM		CC(C)n1c(=O)n(-c2cc(OC(F)F)ccc2F)c2ccc(C(=O)NC3(C)CS(=O)(=O)C3)cc21 [Example 80, 1-(5-(Difluoromethoxy)-2-fluorophenyl)-3-isopropyl-N-(3-methyl-1,1-dioxidothietan-3-yl)-2-oxo-2,3-dihydro-1H-benzo[d]imidazole-5-carboxamide]
6.3 nM		CC(C)n1c(=O)n(-c2cc(OC(F)F)ccc2F)c2ccc(C(=O)N[C@@]3(C)CCS(=O)(=O)C3)cc21 [Example 81, (S)-1-(5-(Difluoromethoxy)-2-fluorophenyl)-3-isopropyl-N-(3-methyl-1,1-dioxidotetrahydrothiophen-3-yl)-2-oxo-2,3-dihydro-1H-benzo[d]imidazole-5-carboxamide]
5.7 nM		CC(C)n1c(=O)n(-c2cc(OC(F)F)ccc2F)c2ccc(C(=O)N[C@]3(C)CCS(=O)(=O)C3)cc21 [Example 82, (R)-1-(5-(Difluoromethoxy)-2-fluorophenyl)-3-isopropyl-N-(3-methyl-1,1-dioxidotetrahydrothiophen-3-yl)-2-oxo-2,3-dihydro-1H-benzo[d]imidazole-5-carboxamide]
150 nM		CC(C)n1c(=O)n(-c2cncc(OC(F)F)c2)c2ccc(C(=O)NC3(C)CS(=O)(=O)C3)cc21 [Example 83, 1-(5-(Difluoromethoxy)pyridin-3-yl)-3-isopropyl-N-(3-methyl-1,1-dioxidothietan-3-yl)-2-oxo-2,3-dihydro-1H-benzo[d]imidazole-5-carboxamide]
71 nM		CC(C)n1c(=O)n(-c2cncc(C3CC3)c2)c2ccc(C(=O)NC3(C)CS(=O)(=O)C3)cc21 [Example 84, 1-(5-Cyclopropylpyridin-3-yl)-3-isopropyl-N-(3-methyl-1,1-dioxidothietan-3-yl)-2-oxo-2,3-dihydro-1H-benzo[d]imidazole-5-carboxamide]
20 nM		CC(C)n1c(=O)n(-c2cccc(OC(F)(F)C(F)F)c2)c2ncc(C(=O)NC3(C)CCS(=O)(=O)CC3)cc21 [Example 87, 1-isopropyl-N-(4-methyl-1,1-dioxo-thian-4-yl)-2-oxo-3-[3-(1,1,2,2-tetrafluoroethoxy)phenyl]imidazo[4,5-b]pyridine-6-carboxamide]
	288 nM	CC(C)n1c(=O)n(-c2cccc(OC(F)F)c2)c2ncc(C(=O)N[C@@]3(C)CCS(=O)(=O)C3)cc21 [Example 89, 3-[3-(difluoromethoxy)phenyl]-1-isopropyl-N-[(3S)-3-methyl-1,1-dioxo-thiolan-3-yl]-2-oxo-imidazo[4,5-b]pyridine-6-carboxamide]
	193 nM	CC(C)n1c(=O)n(-c2cccc(OC(F)F)c2)c2ncc(C(=O)N[C@]3(C)CCS(=O)(=O)C3)cc21 [Example 90, 3-[3-(difluoromethoxy)phenyl]-1-isopropyl-N-[(3R)-3-methyl-1,1-dioxo-thiolan-3-yl]-2-oxo-imidazo[4,5-b]pyridine-6-carboxamide]
	355 nM	CC(C)n1c(=O)n(-c2cccc(OC(F)(F)F)c2)c2ncc(C(=O)NC3(C)CS(=O)(=O)C3)cc21 [Example 91, 1-isopropyl-N-(3-methyl-1,1-dioxo-thietan-3-yl)-2-oxo-3-[3-(trifluoromethoxy)phenyl]imidazo[4,5-b]pyridine-6-carboxamide]
	236 nM	CC(C)n1c(=O)n(-c2cccc(OC(F)(F)F)c2)c2ncc(C(=O)NC3(C)CCS(=O)(=O)CC3)cc21 [Example 92, 1-isopropyl-N-(4-methyl-1,1-dioxo-thian-4-yl)-2-oxo-3-[3-(trifluoromethoxy)phenyl]imidazo[4,5-b]pyridine-6-carboxamide]
	24 nM	CC(C)n1c(=O)n(-c2cccc(OC(F)(F)C(F)F)c2)c2ncc(C(=O)NC3(C)CS(=O)(=O)C3)cc21 [Example 93, 1-isopropyl-N-(3-methyl-1,1-dioxo-thietan-3-yl)-2-oxo-3-[3-(1,1,2,2-tetrafluoroethoxy)phenyl]imidazo[4,5-b]pyridine-6-carboxamide]
	108 nM	CC(C)n1c(=O)n(-c2cccc(OC(F)(F)C(F)F)c2)c2ncc(C(=O)N[C@@]3(C)CCS(=O)(=O)C3)cc21 [Example 94, 1-isopropyl-N-[(3S)-3-methyl-1,1-dioxo-thiolan-3-yl]-2-oxo-3-[3-(1,1,2,2-tetrafluoroethoxy)phenyl]imidazo[4,5-b]pyridine-6-carboxamide]
	23 nM	CC(C)n1c(=O)n(-c2cccc(OC(F)(F)C(F)F)c2)c2ncc(C(=O)N[C@]3(C)CCS(=O)(=O)C3)cc21 [Example 95, 1-isopropyl-N-[(3R)-3-methyl-1,1-dioxo-thiolan-3-yl]-2-oxo-3-[3-(1,1,2,2-tetrafluoroethoxy)phenyl]imidazo[4,5-b]pyridine-6-carboxamide]
	93 nM	CCOc1cccc(-n2c(=O)n(C(C)C)c3cc(C(=O)NC4(C)CS(=O)(=O)C4)cnc32)c1 [Example 96, 3-(3-ethoxyphenyl)-1-isopropyl-N-(3-methyl-1,1-dioxo-thietan-3-yl)-2-oxo-imidazo[4,5-b]pyridine-6-carboxamide]
	154 nM	CCOc1cccc(-n2c(=O)n(C(C)C)c3cc(C(=O)N[C@@]4(C)CCS(=O)(=O)C4)cnc32)c1 [Example 97, 3-(3-ethoxyphenyl)-1-isopropyl-N-[(3S)-3-methyl-1,1-dioxo-thiolan-3-yl]-2-oxo-imidazo[4,5-b]pyridine-6-carboxamide]
	102 nM	CCOc1cccc(-n2c(=O)n(C(C)C)c3cc(C(=O)N[C@]4(C)CCS(=O)(=O)C4)cnc32)c1 [Example 98, 3-(3-ethoxyphenyl)-1-isopropyl-N-[(3R)-3-methyl-1,1-dioxo-thiolan-3-yl]-2-oxo-imidazo[4,5-b]pyridine-6-carboxamide]
	52 nM	CCOc1cccc(-n2c(=O)n(C(C)C)c3cc(C(=O)NC4(C)CCS(=O)(=O)CC4)cnc32)c1 [Example 99, 3-(3-ethoxyphenyl)-1-isopropyl-N-(4-methyl-1,1-dioxo-thian-4-yl)-2-oxo-imidazo[4,5-b]pyridine-6-carboxamide]
	692 nM	CC(C)Oc1cccc(-n2c(=O)n(C(C)C)c3cc(C(=O)NC4(C)CS(=O)(=O)C4)cnc32)c1 [Example 100, 3-(3-isopropoxyphenyl)-1-isopropyl-N-(3-methyl-1,1-dioxo-thietan-3-yl)-2-oxo-imidazo[4,5-b]pyridine-6-carboxamide]
	506 nM	CC(C)Oc1cccc(-n2c(=O)n(C(C)C)c3cc(C(=O)NC4(C)CCS(=O)(=O)CC4)cnc32)c1 [Example 101, 3-(3-isopropoxyphenyl)-1-isopropyl-N-(4-methyl-1,1-dioxo-thian-4-yl)-2-oxo-imidazo[4,5-b]pyridine-6-carboxamide]
	148 nM	CC(C)n1c(=O)n(-c2cc(OC(F)F)ccc2F)c2ncc(C(=O)NC3(C)CS(=O)(=O)C3)cc21 [Example 102, 3-[5-(difluoromethoxy)-2-fluoro-phenyl]-1-isopropyl-N-(3-methyl-1,1-dioxo-thietan-3-yl)-2-oxo-imidazo[4,5-b]pyridine-6-carboxamide]
	94 nM	CC(C)n1c(=O)n(-c2cccc(OC(F)F)c2)c2ncc(C(=O)NC3(C)CS(=O)(=O)C3)cc21 [Example 104, 3-[3-(difluoromethoxy)phenyl]-1-isopropyl-N-(3-methyl-1,1-dioxo-thietan-3-yl)-2-oxo-imidazo[4,5-b]pyridine-6-carboxamide]
1800 nM		CC(C)n1c(=O)n(-c2cccc(OC(F)F)c2)c2cnc(C(=O)NC3(C)CS(=O)(=O)C3)cc21 [Example 105, 3-(3-(difluoromethoxy)phenyl)-1-isopropyl-N-(3-methyl-1,1-dioxidothietan-3-yl)-2-oxo-2,3-dihydro-1H-imidazo[4,5-c]pyridine-6-carboxamide]
69.8 nM		CC(C)n1c(=O)n(-c2cccc(OC(F)F)c2)c2cnc(C(=O)NC3(C)CCS(=O)(=O)CC3)cc21 [Example 106, 3-(3-(difluoromethoxy)phenyl)-1-isopropyl-N-(4-methyl-1,1-dioxidotetrahydro-2H-thiopyran-4-yl)-2-oxo-2,3-dihydro-1H-imidazo[4,5-c]pyridine-6-carboxamide]
1080 nM		CC(C)n1c(=O)n(-c2cccc(OC(F)F)c2)c2ccc(C(=O)NC3(C)CS(=O)(=O)C3)nc21 [Example 107, 1-(3-(difluoromethoxy)phenyl)-3-isopropyl-N-(3-methyl-1,1-dioxidothietan-3-yl)-2-oxo-2,3-dihydro-1H-imidazo[4,5-b]pyridine-5-carboxamide]
12 nM		CC(C)n1c(=O)n(-c2cccc(OC(F)F)c2)c2c(F)cc(C(=O)NC3(C)CS(=O)(=O)C3)cc21 [Example 108, 1-[3-(difluoromethoxy)phenyl]-7-fluoro-3-isopropyl-N-(3-methyl-1,1-dioxo-thietan-3-yl)-2-oxo-benzimidazole-5-carboxamide]

Source: patent publication US11976061B2, “Preparation of benzimidazolone derivatives as novel diacylglyceride O-acyltransferase 2 inhibitors” (Merck Sharp & Dohme LLC, priority 2020, dated 2024)
